Experimental findings from patent US10954216B2, “BMP-signal-inhibiting compound” (RIKEN, priority 2016, dated 2021) are described below.

Each structure is given as a SMILES string. Where two headings read alike, the source gives them in different places.

Assay [1] concerns the target human ALK2 (Homo sapiens (Human), UniProt Q04771). Put plainly: ALK2 enzyme inhibitory effect (33P-ATP kinase assay, Reaction Biology). Format: biochemical. The settings on record: ALK2, 10 μM ATP, 20 μM casein. An excerpt: (§1) ALK Enzyme Inhibitory Effect
(§2) Evaluation conditions were described in the following web pages. http://www.reactionbiology.corrilwebapps/site/Kinase_Assay_Protocol.aspx http://www.reactionbiology.corrilwebapps/site/KinaseDetail.aspx?page=Kinases&id=1

Assay [2] concerns the target human ALK3 (Homo sapiens (Human), UniProt P36894). Put plainly: ALK3 enzyme inhibitory effect (33P-ATP kinase assay, Reaction Biology). Format: biochemical. The settings on record: for inhibition at 0.3 µM: read-out: Inhibition rate at 300 nM; for inhibition at 0.37 µM: ALK3, test compound 370 nM (asterisk footnote), read-out: inhibition rate at 370 nM.
Description: as §1, §2

The target of assay [3] is human ALK6 (Homo sapiens (Human), UniProt O00238). Put plainly: ALK6 enzyme inhibitory effect (33P-ATP kinase assay, Reaction Biology). Format: biochemical. The settings on record: for inhibition at 0.3 µM: read-out: Inhibition rate at 300 nM; for inhibition at 0.37 µM: ALK6, test compound 370 nM (asterisk footnote), read-out: inhibition rate at 370 nM.
human ALK6, sequence (O00238 14-502): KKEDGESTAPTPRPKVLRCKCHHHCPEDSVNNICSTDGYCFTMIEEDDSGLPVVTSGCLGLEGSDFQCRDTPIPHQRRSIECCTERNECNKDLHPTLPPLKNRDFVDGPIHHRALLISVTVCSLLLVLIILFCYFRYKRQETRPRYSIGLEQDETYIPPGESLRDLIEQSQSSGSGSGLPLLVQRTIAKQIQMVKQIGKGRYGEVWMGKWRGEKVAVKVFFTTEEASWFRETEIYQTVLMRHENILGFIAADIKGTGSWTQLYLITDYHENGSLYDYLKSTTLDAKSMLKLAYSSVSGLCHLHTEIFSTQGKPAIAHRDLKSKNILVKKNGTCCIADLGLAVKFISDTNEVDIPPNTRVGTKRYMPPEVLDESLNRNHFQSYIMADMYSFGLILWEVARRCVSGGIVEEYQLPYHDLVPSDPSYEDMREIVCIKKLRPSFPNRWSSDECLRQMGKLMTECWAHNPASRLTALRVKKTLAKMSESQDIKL
Description: as §1, §2

The test system of assay [4] is BMP signal in MDA-231-D-BREFluc/Rluc cells. Put plainly: BMP signal inhibitory effect (AlphaScreen SureFire SMAD1 p-Ser463/465, BMP-6 stimulation). Format: cell-based. The procedure, abridged: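 Read-out was phospho-SMAD1 (Ser463/465) by AlphaScreen SureFire after 30 min BMP-6 stimulation at 37° C. Before stimulation, MDA-231-D-BREFluc/Rluc cells were incubated with test compound at 37° C for 2 h.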

Setting [5] is: BMP-6 stimulated MDA-231-D-BREFluc/Rluc cells, phospho-SMAD1 AlphaScreen, read-out: IC50.

human ALK3, sequence (P36894 24-532): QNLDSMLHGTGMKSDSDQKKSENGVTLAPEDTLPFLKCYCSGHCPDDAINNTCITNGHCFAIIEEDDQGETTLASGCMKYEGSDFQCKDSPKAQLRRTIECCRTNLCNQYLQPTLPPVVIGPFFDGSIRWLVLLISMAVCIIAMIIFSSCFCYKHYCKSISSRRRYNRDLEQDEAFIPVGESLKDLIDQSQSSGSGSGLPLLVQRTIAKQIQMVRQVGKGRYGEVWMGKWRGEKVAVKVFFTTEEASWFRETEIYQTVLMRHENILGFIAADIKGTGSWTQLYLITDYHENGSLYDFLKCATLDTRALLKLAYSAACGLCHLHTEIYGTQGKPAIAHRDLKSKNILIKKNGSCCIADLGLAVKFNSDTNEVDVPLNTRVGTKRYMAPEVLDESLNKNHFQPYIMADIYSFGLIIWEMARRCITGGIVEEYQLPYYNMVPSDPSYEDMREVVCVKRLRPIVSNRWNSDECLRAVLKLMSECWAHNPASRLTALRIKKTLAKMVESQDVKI
human ALK2, sequence (Q04771 21-509): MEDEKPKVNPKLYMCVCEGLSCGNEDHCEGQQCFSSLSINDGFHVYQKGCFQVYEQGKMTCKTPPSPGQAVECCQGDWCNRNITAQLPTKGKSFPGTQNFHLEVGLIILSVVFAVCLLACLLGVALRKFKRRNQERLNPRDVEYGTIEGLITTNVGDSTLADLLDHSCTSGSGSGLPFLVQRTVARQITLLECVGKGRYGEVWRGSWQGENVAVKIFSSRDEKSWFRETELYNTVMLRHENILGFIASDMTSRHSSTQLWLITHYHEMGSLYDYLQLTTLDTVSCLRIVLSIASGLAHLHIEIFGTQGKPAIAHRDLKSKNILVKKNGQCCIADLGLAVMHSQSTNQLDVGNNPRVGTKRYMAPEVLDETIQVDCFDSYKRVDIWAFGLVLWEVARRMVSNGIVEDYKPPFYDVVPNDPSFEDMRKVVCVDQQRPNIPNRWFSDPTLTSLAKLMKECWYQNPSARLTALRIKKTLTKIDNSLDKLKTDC

The term IC50 denotes the concentration at which inhibition is half-maximal. For orientation: inhibition means the relative decrease from the control value, in per cent. As to `CCn1cc(-c2ccnc(Nc3ccc(C(=O)N4CCN(c5ccc(F)cc5)CC4)cc3)n2)c(-c2cccnc2)n1` [Example 3, (4-((4-(1-ethyl-3-(pyridin-3-yl)-1H-pyrazol-4-yl)pyrimidin-2-yl)amino)phenyl)(4-(4-fluorophenyl)piperazin-1-yl)methanone], the IC50 in assay [1] was found to be 0.0242 µM; in assay [4] (setting [5]), 0.0267 µM. The inhibition at 0.3 µM in assay [2] (ALK3, test compound 300 nM) turned out to be 52%; in assay [3] (ALK6, test compound 300 nM) it was 79.6%.
`CCn1cc(-c2ccnc(Nc3ccc(N4CCN(C5COC5)CC4)cc3)n2)c(-c2cccnc2)n1` [Example 15, 4-(1-ethyl-3-(pyridin-3-yl)-1H-pyrazol-4-yl)-N-(4-(4-(oxetan-3-yl)piperazin-1-yl)phenyl)pyrimidin-2-amine]: the IC50 in assay [1] came to 0.045 µM; in assay [4] (setting [5]), 0.0301 µM. For the same compound, the inhibition at 0.3 µM in assay [2] (ALK3, test compound 300 nM) is 51.4%; in assay [3] (ALK6, test compound 300 nM), 90.2%.
The corresponding values for `CCn1cc(-c2ccnc(Nc3ccc(N4CCN(CCOC)CC4)cc3)n2)c(-c2cccnc2)n1` [Example 17, 4-(1-ethyl-3-(pyridin-3-yl)-1H-pyrazol-4-yl)-N-(4-(4-(2-methoxyethyl)piperazin-1-yl)phenyl)pyrimidin-2-amine] are 0.054 µM, 0.0226 µM, 50.4% and 88%.
The like results for `CCn1cc(-c2ccnc(Nc3ccc(N4CCN(Cc5ccccc5)CC4)cc3)n2)c(-c2cccnc2)n1` [Example 19, N-(4-(4-benzylpiperazin-1-yl)phenyl)-4-(1-ethyl-3-(pyridin-3-yl)-1H-pyrazol-4-yl)pyrimidin-2-amine] were, in that order, 0.025 µM, 0.0233 µM, 59.3% and 88.4%.
The corresponding values for `CCn1cc(-c2ccnc(Nc3ccc(N4CCCCC4)cc3)n2)c(-c2cccnc2)n1` [Example 49, 4-(1-ethyl-3-(pyridin-3-yl)-1H-pyrazol-4-yl)-N-(4-(piperidin-1-yl)phenyl)pyrimidin-2-amine] are 0.067 µM, 0.0281 µM, 52.2% and 91.6%.
`COCCn1cc(-c2ccnc(Nc3ccc(N4CCNCC4)cc3)n2)c(-c2cccnc2)n1` [Example 71, 4-(1-(2-methoxyethyl)-3-(pyridin-3-yl)-1H-pyrazol-4-yl)-N-(4-(piperazin-1-yl)phenyl)pyrimidin-2-amine]: the IC50 in assay [1] was determined as 0.04 µM; in assay [4] (setting [5]), 0.0228 µM. Further, the inhibition at 0.3 µM in assay [2] (ALK3, test compound 300 nM) stood at 48%; in assay [3] (ALK6, test compound 300 nM), 76%.
The like results for `CCn1cc(-c2ccnc(Nc3ccc4c(c3)CCN(C(C)=O)C4)n2)c(-c2cccnc2)n1` [Example 75, 1-(6-((4-(1-Ethyl-3-(pyridin-3-yl)-1H-pyrazol-4-yl)pyrimidin-2-yl)amino)-3,4-dihydroisoquinolin-2(1H)-yl)ethan-1-one] were, in that order, 0.028 µM, 0.0148 µM, 67.5% and 92.9%.
As to `c1cncc(-c2nn(C3COC3)cc2-c2ccnc(Nc3ccc(N4CCN(C5COC5)CC4)cc3)n2)c1` [Example 101, 4-(1-(oxetan-3-yl)-3-(pyridin-3-yl)-1H-pyrazol-4-yl)-N-(4-(4-(oxetan-3-yl)piperazin-1-yl)phenyl)pyrimidin-2-amine], the results for the IC50 in assay [1] and in assay [4] (setting [5]) were 0.018 µM and 0.0708 µM, respectively. Besides, the results for the inhibition at 0.37 µM in assay [2] and in assay [3] were 48.8% and 70.4%, respectively.
Take `CCn1cc(-c2ccnc(Nc3ccc(N4CCN(CC(C)(C)O)CC4)cc3)n2)c(-c2cccnc2)n1` [Example 104, 1-(4-(4-((4-(1-ethyl-3-(pyridin-3-yl)-1H-pyrazol-4-yl)pyrimidin-2-yl)amino)phenyl)piperazin-1-yl)-2-methylpropan-2-ol]: the IC50 in assay [1] came to 0.0132 µM; in assay [4] (setting [5]), 0.0164 µM. Besides, the inhibition at 0.3 µM in assay [2] (ALK3, test compound 300 nM) stood at 65.8%; in assay [3] (ALK6, test compound 300 nM), 93.5%.
On to `CCn1cc(-c2ccnc(Nc3ccc4c(c3)CCN(CCOC)C4)n2)c(-c2cccnc2)n1` [Example 126, N-(4-(1-Ethyl-3-(pyridin-3-yl)-1H-pyrazol-4-yl)pyrimidin-2-yl)-2-(2-methoxyethyl)-1,2,3,4-tetrahydroisoquinolin-6-amine], for which the IC50 in assay [1] was determined as 0.015 µM; in assay [4] (setting [5]) it was 0.004 µM. Besides, the inhibition at 0.3 µM in assay [2] (ALK3, test compound 300 nM) was 59%; in assay [3] (ALK6, test compound 300 nM), 85%.
`CCn1cc(-c2ccnc(Nc3ccc4c(c3)CCN(C)C4)n2)c(-c2cccnc2)n1` [Example 129, N-(4-(1-Ethyl-3-(pyridin-3-yl)-1H-pyrazol-4-yl)pyrimidin-2-yl)-2-methyl-1,2,3,4-tetrahydroisoquinolin-6-amine]: the IC50 in assay [1] was determined as 0.033 µM; in assay [4] (setting [5]), 0.0018 µM. Besides, the inhibition at 0.3 µM in assay [2] (ALK3, test compound 300 nM) was found to be 55.7%; in assay [3] (ALK6, test compound 300 nM), 92.2%.
The like results for `CC(C)(C)n1cc(-c2ccnc(Nc3ccc(N4CCNCC4)cc3)n2)c(-c2cccnc2)n1` [Example 135] were, in that order, 0.054 µM, 0.0117 µM, 60% and 77%.
The like results for `c1cncc(-c2nn(C3COC3)cc2-c2ccnc(Nc3ccc(N4CCNCC4)cc3)n2)c1` [Example 137, 4-(1-(Oxetan-3-yl)-3-(pyridin-3-yl)-1H-pyrazol-4-yl)-N-(4-(piperazin-1-yl)phenyl)pyrimidin-2-amine] were, in that order, 0.0462 µM, 0.0356 µM, 47.9% and 85.3%.
The like results for `c1ccc(CCn2cc(-c3ccnc(Nc4ccc(N5CCNCC5)cc4)n3)c(-c3cccnc3)n2)cc1` [Example 142, 4-(1-Phenethyl-3-(pyridin-3-yl)-1H-pyrazol-4-yl)-N-(4-(piperazin-1-yl)phenyl)pyrimidin-2-amine] were, in that order, 0.0872 µM, 0.0073 µM, 62.7% and 92.6%.
Turning to `FC(F)Cn1cc(-c2ccnc(Nc3ccc(N4CCNCC4)cc3)n2)c(-c2cccnc2)n1` [Example 149, 4-(1-(2,2-Difluoroethyl)-3-(pyridin-3-yl)-1H-pyrazol-4-yl)-N-(4-(piperazin-1-yl)phenyl)pyrimidin-2-amine], the IC50 in assay [1] was found to be 0.0625 µM; in assay [4] (setting [5]), 0.0091 µM. The inhibition at 0.3 µM was determined as 63.5% in assay [2] (ALK3, test compound 300 nM) and 86.5% in assay [3] (ALK6, test compound 300 nM).
Take `CCn1cc(-c2ccnc(Nc3ccc(N4CCNCC4)cc3)n2)c(-c2cccnc2)n1` [Example 151, 4-(1-Ethyl-3-(pyridin-3-yl)-1H-pyrazol-4-yl)-N-(4-(piperazin-1-yl)phenyl)pyrimidin-2-amine]: the results for the inhibition at 0.37 µM in assay [2] and in assay [3] were 56.1% and 93%, respectively. The IC50 in assay [4] (setting [5]) was found to be 0.0036 µM.
Take `CCn1cc(-c2ccnc(Nc3ccc(C4CC5CCC(C4)N5)cc3)n2)c(-c2cccnc2)n1` (stereo not drawn) [Example 163, N-(4-(8-Azabicyclo [3.2.1]octan-3-yl)phenyl)-4-(1-ethyl-3-(pyridin-3-yl)-1H-pyrazol-4-yl)pyrimidin-2-amine]: the inhibition at 0.3 µM in assay [2] amounted to 47.6%; in assay [3], 96.2%. In assay [4], this compound came in with an IC50 of 0.0049 µM.
